Experimental data published in patent US10317405B2, “Methods of detecting Akt3 and administering Ax1 inhibitor” (BERGENBIO ASA, priority 2012, dated 2019).

Columns and labels:
MCF10A cells [1] = assay: Immunoblot of EMT markers (N-cadherin, vimentin, E-cadherin) in transduced MCF10A cells treated with Akt inhibitor; assay type: cell-based, human; settings: inhibitor 10 μM, 12 hours
Method: (§1) MCF10A cells were cultured and transduced with retroviral constructs expressing myrAkt1, MyrAkt3 or Slug as described in FIGS. 1 and 3. The cells were treated with Akt inhibitors LY294002 (10 μM, Cell Signaling Technology, Cat. #9901) and Akt VIII (10 μM, Merck, Cat. #124018) for 12 hours as indicated. Cells were then either visualized at indicated magnification by phase-contrast microscopy, or seeded for invasive growth in 3D Matrigel as described in Example 3.
(§2) MCF10A cells were cultured and transduced with retroviral constructs expressing myrAkt1, MyrAkt3 or Slug as described in FIGS. 1 and 3. The cells were treated with Akt inhibitor as described in FIG. 6. SDS/PAGE, immunoblotting and antibodies as described in Examples 1 and 4.

Akt = assay: Immunoblot of Akt activation (pAkt) in transduced MCF10A cells treated with Akt inhibitor; assay type: cell-based, human; settings: inhibitor 10 μM, 12 hours
Method: as §1, §2

MCF10A cells [2] = assay: Mesenchymal phenotype in 2D growth and invasive growth in 3D Matrigel of transduced MCF10A cells treated with Akt inhibitors; assay type: cell-based, human; settings: inhibitor 10 μM, 12 hours
Method: as §1

Akt3 [3] = assay: SureFire assay detecting activated (phosphorylated) Akt3 in cells; assay type: cell-based; settings: 10 nM insulin for 10 minutes
Method: A SureFire assay was used to specifically detect activated (phosphorylated) Akt3 in WM115, MCF7 and LNCaP cells. Briefly cells were lysated, and antibodies recognizing phosphorylated Akt (p473) and Akt3 were coupled to acceptor and donor beads as described by the manufacturer (PerkinElmer). Cells were either unstimulated or stimulated with 10 nM insulin for 10 minutes to activate Akt.

Akt3 [4] = assay: Quantification of nuclear Akt3 immunofluorescence in mammary epithelial cells (HMEC); assay type: cell-based, human; settings: 600 nM BGB324 (Axl TKI), 1 uM imatinib (cKit TKI), versus vehicle (DMSO), *P<0.05
Excerpt: Culturing of MDA-MB-231 cells was as described in Example 3. Primary human mammary epithelial cells (HMEC) were isolated as described (Garbe J C, Pepin F, Pelissier F A, Sputova K, Fridriksdottir A J, Guo D E, Villadsen R, Park M, Petersen O W, Borowsky A D, Stampfer M R, Labarge M A. Accumulation of multipotent progenitors with a basal differentiation bias during aging of human mammary epithelia. Cancer Res. 2012 Jul. 15; 72(14):3687-701) Localization of Akt3 (anti-Akt3-FITC, top panels) in MDA-MB-231 and primary human mammary epithelial cells (HMEC) as in Example 17. Nucleus was stained by DAPI (lower panels). Bar: 50 micron

## O=c1[nH]c2ccccc2n1C1CCN(Cc2ccc(-c3nc4cc5nc[nH]c5cc4nc3-c3ccccc3)cc2)CC1 [AKT VIII]
MCF10A cells [1]
  mesenchymal marker N-cadherin expression: significant reduction
  mesenchymal marker vimentin expression: significant reduction
  re-expression of the epithelial marker E-cadherin: Neither inhibitor led to re-expression
  reversal of the mesenchymal phenotype / inhibition of EMT: partially reverse
Akt
  Akt activation (pAkt): fully inhibit
MCF10A cells [2]; MCF10A cells expressing MyrAkt3
  mesenchymal phenotype induced by Akt3: inhibit
MCF10A cells [2]; MCF10A cells expressing Slug, 2D culture and 3D Matrigel
  mesenchymal/invasive phenotype induced by Slug in 2D and 3D growth: inhibit

## insulin: stimulus used to activate Akt in the SureFire assay
Akt3 [3]; LNCaP prostate cells
  Akt3 activity (phosphorylation) signal: no signal
Akt3 [3]; MCF7 breast epithelial cells
  Akt3 activity (phosphorylation) signal: no signal
Akt3 [3]; WM115 melanoma cells
  Akt3 activity (phosphorylation): significantly induce

## Nc1nc(Nc2ccc3c(c2)CC[C@@H](N2CCCC2)CC3)nn1-c1cc2c(nn1)-c1ccccc1CCC2 [BGB324, 1-(6,7-dihydro-5H-benzo[6,7]cyclohepta[1,2-c]pyridazin-3-yl)-N3-((7-(S)-pyrrolidin-1-yl)-6,7,8,9-tetrahydro-5H-benzo[7]annulene-2-yl)-1H-1,2,4-triazole-3,5-diamine]
Akt3 [4]
  Akt3 nuclear localization: inhibit
